Assay [1] has as its target T1, ULK1 kinase (Homo sapiens, UniProt O75385, E37A/K38A).
T1 construct: (residues 1-283; ID NO: 1); purchased Beryllium
T1 sequence (O75385 1-283 E37A/K38A): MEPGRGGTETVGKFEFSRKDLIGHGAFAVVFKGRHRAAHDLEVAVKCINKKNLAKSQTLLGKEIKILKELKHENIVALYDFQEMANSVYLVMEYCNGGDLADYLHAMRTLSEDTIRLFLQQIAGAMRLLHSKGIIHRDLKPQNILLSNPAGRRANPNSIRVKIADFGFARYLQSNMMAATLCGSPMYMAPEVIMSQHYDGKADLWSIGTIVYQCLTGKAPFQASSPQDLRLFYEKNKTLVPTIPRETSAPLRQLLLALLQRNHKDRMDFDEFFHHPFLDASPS
In words: Biochemical assay for ULK1 (coupled pyruvate kinase/lactate dehydrogenase assay). The conditions noted are these: 1 mM ATP, 0.1 nM ULK1; read-out: ULK1 (inhibition of biochemical activity), IC50. How it is done: Biochemical Assay for ULK1 (SEQ. ID NO: 1)
Activity of ULK1 kinase was determined spectroscopically using a coupled pyruvate kinase/lactate dehydrogenase assay that continuously monitors the ATP hydrolysis-dependent oxidation of NADH (e.g., Schindler et al. Science (2000) 289: 1938-1942). Assays were conducted in 384-well plates (100 μL final volume) using 0.1 nM ULK1 (from Beryllium), 0.075 mM peptide substrate (YANWLAASIYLDGKKK), 1.5 units pyruvate kinase, 2.1 units lactate dehydrogenase, 1 mM phosphoenol pyruvate, 0.28 mM NADH and 1 mM ATP in assay buffer (100 mM Tris, pH 7.5, 15 mM MgCl2, 0.5 mM DTT, 0.004% (w/v) BSA, and 0.004% Triton X-100). Inhibition of ULK1 was measured by adding serial diluted test compound (final assay concentration of 1% DMSO). A decrease in absorption at 340 nm was monitored continuously for 6 h at 30° C. on a multi-mode microplate reader (BioTek). The reaction rate was calculated using the 2-3 h time frame. The reaction rate at each concentration of compound was converted to percent inhibition using controls (i.e., reaction with no test compound and reaction with a known inhibitor) and IC50 values were calculated using software routines in Prism (GraphPad software).

The subject of assay [2] is ULK kinase substrate ATG13 (pS318-ATG13) in MiaPaCa-2 cells. In words: pATG13 levels of mutant KRas MiaPaCa-2 cells after treatment with ULK inhibitors in combination with trametinib (ELISA). The class given is cell-based, human. How it is done:
pATG13 Levels of Mutant KRas MiaPaCa-2 Cells after Treatment with ULK Inhibitors in Combination with Trametinib
(§1) MiaPaCa-2 human pancreatic cancer cells (10000 cells/well) were added to a 384-well tissue-culture treated plate in 50 μL of pre-warmed DMEM medium supplemented with 10% characterized fetal bovine serum (Invitrogen, Carlsbad, CA), 100 units/mL penicillin G, 100 μg/mL streptomycin, and 2.5% Horse Serum and allowed to grow overnight at 37° C., 5% CO2, and 95% humidity. The following day, 10 μL of media containing trametinib or DMSO as a control was added to wells. The final concentration of trametinib in wells was 250 nM. A dose response of a test compound (0.6 μL per well) was added. DMSO (0.6 μL) was added to control wells. The plate was briefly shaken to mix wells and then incubated at 37° C. overnight. The next day, the media was aspirated and cells were washed with Dulbecco's Phosphate Buffered Saline (Gibco). Cells were lysed using MPER lysis buffer (Pierce, Rockford, IL) containing Halt Phosphatase and Protease Inhibitors (Pierce, Rockford, IL) and Phosphatase inhibitor cocktail 2 (Sigma, St. Louis, MO) at 4° C. for 10 minutes with shaking.
(§2) Cellular levels of phospho-Serine 318 ATG13 (pATG13) were measured via an ELISA method. Total ATG13 Antibody (Cell Signaling Cat #13273) was used to coat the wells. The plate was incubated at 4° C. overnight and washed with ELISA wash buffer (Biolegend Cat #421601). The wells were then blocked with assay diluent (Biolegend Cat #421203) for 1 h at rt. Plate wells were washed with ELISA wash buffer. Cell lysate was added to wells and incubated at rt for 2 h. Plate wells were washed with ELISA wash buffer. Biotinylated pS318-ATG13 antibody (Rockland Immunochemicals Cat #600-401-C49) was diluted in assay diluent and added to each well and incubated at rt for 1 h. Plate wells were washed with ELISA wash buffer. Streptavidin linked to horseradish peroxidase (Thermo Fisher Cat #21140) was diluted in assay diluent and added to each well and incubated at rt for 1 h. Plate wells were washed with ELISA wash buffer. High sensitivity TMB substrate (Biolegend Cat #421101) was added to each well and incubated at rt for 20 min. The reaction was stopped with 2.0N sulfuric acid. The plate was analyzed at on a plate reader measuring absorbance at 450 nm and 540 nm (background). Signal was calculated by first subtracting the background absorbance at 540 nm from the absorbance at 450 nm for each well. Next, the background corrected absorbance at 450 nm from blank wells was subtracted from test wells. Data was compared to control wells to determine % ATG13 phosphorylation. GraphPad Prism was used to calculate IC50 values.

Assay [3] relates to ULK kinase substrate ATG13 (pS318-ATG13) in A549 (KRAS mutant) cells. Description: pATG13 levels of mutant KRas A549 cells after treatment with ULK inhibitors in combination with trametinib (ELISA). In kind it is cell-based, human. How it is done:
Cellular Inhibition of ULK Kinase Substrate ATG13 Protein pATG13 Levels of Mutant KRas A549 Cells after Treatment with ULK Inhibitors in Combination with Trametinib
as §1, with “A549 (KRAS mutant)” for “MiaPaCa-2”, “lung” for “pancreatic”, “(6,000” for “(10000”, “G, and” for “G,”, “streptomycin” for “streptomycin, and 2.5% Horse Serum”, “min” for “minutes”
as §2, with “2N Sulfuric Acid.” for “2.0N sulfuric acid.”
A general note: An ELISA detects its analyte on a solid surface through an enzyme-linked reagent.

Assay [4] has as its target T2, LRRK2 kinase (Homo sapiens, UniProt Q5S007).
T2 construct: (residues 970-2528; ID NO; 3); purchased Thermo Fisher
Description: Biochemical assay for LRRK2 (coupled pyruvate kinase/lactate dehydrogenase assay). As to conditions: 26.4 nM LRRK2, 1 mM ATP; read-out: LRRK2 (inhibition of LRRK2 kinase activity, IC50). The procedure: Biochemical Assay for LRRK2 (SEQ. ID NO. 3)
Activity of LRRK2 kinase was determined spectroscopically using a coupled pyruvate kinase/lactate dehydrogenase assay that continuously monitors the ATP hydrolysis-dependent oxidation of NADH (e.g., Schindler et al. Science (2000) 289: 1938-1942). Assays were conducted in 384-well plates (100 μL final volume) using 26.4 nM LRRK2 (Thermo Fisher), 0.1 mM peptide substrate (RLGRDKYKTLRQIRQ), 1.5 units pyruvate kinase, 2.1 units lactate dehydrogenase, 1 mM phosphoenol pyruvate, 0.28 mM NADH and 1 mM ATP in assay buffer (100 mM Tris, pH 7.5, 15 mM MgCl2, 0.5 mM DTT, 0.004% (w/v) BSA, and 0.004% Triton X-100). Inhibition of LRRK2 was measured by adding serial diluted test compound (final assay concentration of 1% DMSO). A decrease in absorption at 340 nm was monitored continuously for 6 h at 30° C. on a multi-mode microplate reader (BioTek). The reaction rate was calculated using the 2-3 h time frame. The reaction rate at each concentration of compound was converted to percent inhibition using controls (i.e., reaction with no test compound and reaction with a known inhibitor) and IC50 values were calculated using software routines in Prism (GraphPad software).

For orientation: IC50 means the concentration that inhibits the measured activity by half.

T2 sequence (Q5S007 with tags, fused parts or gaps): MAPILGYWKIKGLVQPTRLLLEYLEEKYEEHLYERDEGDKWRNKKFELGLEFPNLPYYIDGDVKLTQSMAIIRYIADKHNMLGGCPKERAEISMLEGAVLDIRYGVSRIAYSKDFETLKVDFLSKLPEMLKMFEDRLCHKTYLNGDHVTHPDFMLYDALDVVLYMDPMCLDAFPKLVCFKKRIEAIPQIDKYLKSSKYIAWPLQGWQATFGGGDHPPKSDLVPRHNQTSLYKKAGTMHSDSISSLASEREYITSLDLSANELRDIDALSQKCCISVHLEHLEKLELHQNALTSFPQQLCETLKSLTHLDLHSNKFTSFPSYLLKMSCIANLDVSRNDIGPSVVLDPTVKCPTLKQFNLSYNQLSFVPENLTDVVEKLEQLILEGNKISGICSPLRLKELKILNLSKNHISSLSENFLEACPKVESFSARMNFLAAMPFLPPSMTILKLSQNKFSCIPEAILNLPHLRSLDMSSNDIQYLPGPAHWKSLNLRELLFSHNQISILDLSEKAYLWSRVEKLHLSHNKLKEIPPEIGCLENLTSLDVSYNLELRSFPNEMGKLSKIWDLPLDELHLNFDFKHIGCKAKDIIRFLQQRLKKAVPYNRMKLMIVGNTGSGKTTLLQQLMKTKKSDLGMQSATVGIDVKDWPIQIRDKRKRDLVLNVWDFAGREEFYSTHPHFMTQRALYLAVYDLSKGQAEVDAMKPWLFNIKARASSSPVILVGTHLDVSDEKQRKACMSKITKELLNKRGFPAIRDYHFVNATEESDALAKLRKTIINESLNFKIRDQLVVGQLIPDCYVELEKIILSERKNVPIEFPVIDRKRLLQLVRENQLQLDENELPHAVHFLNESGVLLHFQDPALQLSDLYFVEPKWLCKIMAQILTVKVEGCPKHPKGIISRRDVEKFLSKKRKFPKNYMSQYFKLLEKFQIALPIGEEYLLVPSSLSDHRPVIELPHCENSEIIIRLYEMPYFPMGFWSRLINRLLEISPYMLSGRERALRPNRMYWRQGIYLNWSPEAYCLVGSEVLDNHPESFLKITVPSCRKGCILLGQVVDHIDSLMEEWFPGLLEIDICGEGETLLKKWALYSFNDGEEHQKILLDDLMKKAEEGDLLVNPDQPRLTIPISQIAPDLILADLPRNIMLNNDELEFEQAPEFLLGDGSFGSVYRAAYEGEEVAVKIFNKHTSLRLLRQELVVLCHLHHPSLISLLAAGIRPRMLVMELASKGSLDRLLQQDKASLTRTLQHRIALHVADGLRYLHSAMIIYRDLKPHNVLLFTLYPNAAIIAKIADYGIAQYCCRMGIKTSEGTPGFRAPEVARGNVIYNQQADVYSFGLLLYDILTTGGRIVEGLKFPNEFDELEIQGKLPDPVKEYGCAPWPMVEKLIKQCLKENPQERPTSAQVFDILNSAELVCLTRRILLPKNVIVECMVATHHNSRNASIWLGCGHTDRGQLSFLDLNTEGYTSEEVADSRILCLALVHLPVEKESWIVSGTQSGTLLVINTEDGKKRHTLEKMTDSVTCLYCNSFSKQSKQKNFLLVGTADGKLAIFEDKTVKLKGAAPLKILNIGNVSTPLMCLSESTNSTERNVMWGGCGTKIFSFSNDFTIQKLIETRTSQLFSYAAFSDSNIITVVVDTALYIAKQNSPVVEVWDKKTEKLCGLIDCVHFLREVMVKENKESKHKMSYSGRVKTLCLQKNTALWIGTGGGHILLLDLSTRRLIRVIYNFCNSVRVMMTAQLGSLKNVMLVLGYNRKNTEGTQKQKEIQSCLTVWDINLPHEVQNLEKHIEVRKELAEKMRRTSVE

Regarding `CC/C(Nc1cnn(C2CCN(C3CCCC3)CC2)c1)=C1/C(=O)Nc2ccc(C(=O)NCC(C)C)cc21` [Example 33], the results for the IC50 in assay [1], in assay [2] and in assay [3] were no more than 10 nM, no more than 100 nM and no more than 100 nM, respectively.

Turning to `CC/C(Nc1cnn(C2CCN(C3CCCCC3)CC2)c1)=C1/C(=O)Nc2ccc(C(=O)NCC(C)C)cc21` [Example 34], the figures for the IC50 in assay [1], in assay [2] and in assay [3] were no more than 10 nM, no more than 100 nM and no more than 100 nM, respectively.

Turning to `CC/C(Nc1cnn(C2CCN(C3COC3)CC2)c1)=C1/C(=O)Nc2ccc(C(=O)NCC(C)C)cc21` [Example 35], the IC50 was no more than 10 nM in assay [1], no more than 100 nM in assay [2] and 300 to 600 nM in assay [3].

Regarding `CC/C(Nc1cnn(C2CCN(C3CCOC3)CC2)c1)=C1/C(=O)Nc2ccc(C(=O)NCC(C)C)cc21` (stereo not drawn) [Example 36], the half-maximal inhibitory concentration (IC50) is no more than 10 nM in assay [1], no more than 100 nM in assay [2] and 100 to 300 nM in assay [3].

For the molecule `CC/C(Nc1cnn(C2CCN(CC(C)C)CC2)c1)=C1/C(=O)Nc2ccc(C(=O)NCC(C)C)cc21` [Example 38], the IC50 in assay [1] was no more than 10 nM; in assay [2], no more than 100 nM; in assay [3] it was no more than 100 nM.

With `CC/C(Nc1cnn(C2CCN(CC3CC3)CC2)c1)=C1/C(=O)Nc2ccc(C(=O)NCC(C)C)cc21` [Example 39], the IC50 in assay [1] was no more than 10 nM; in assay [2], no more than 100 nM; in assay [3] it was no more than 100 nM.

For `CC/C(Nc1cnn(C2CCN(CC3CCC3)CC2)c1)=C1/C(=O)Nc2ccc(C(=O)NCC(C)C)cc21` [Example 40], the IC50 is no more than 10 nM in assay [1], no more than 100 nM in assay [2] and no more than 100 nM in assay [3].

Turning to `CC/C(Nc1cnn(C2CCN(CCOC)CC2)c1)=C1/C(=O)Nc2ccc(C(=O)NCC(C)C)cc21` [Example 41], the figures for the concentration for half-maximal inhibition (IC50) in assay [1], in assay [2] and in assay [3] were no more than 10 nM, no more than 100 nM and no more than 100 nM, respectively.

For `CC/C(Nc1cnn(C2CCN(C(C)C)CC2)c1)=C1/C(=O)Nc2ccc(C(=O)NCC3CCC3)cc21` [Example 43], the IC50 was no more than 10 nM in assay [1], no more than 100 nM in assay [2] and no more than 100 nM in assay [3].

As to `CC/C(Nc1cccc(N2CCN(C(C)C)CC2)c1)=C1/C(=O)Nc2ccc(C(=O)NC[C@H]3CCCO3)cc21` [Example 46], the IC50 in assay [1] was 10 to 100 nM; in assay [2] it was no more than 100 nM; in assay [3], 100 to 300 nM.

On to `CC/C(Nc1cnn(CC)c1)=C1/C(=O)Nc2ccc(C(=O)NCC3(C(F)(F)F)CC3)cc21` [Example 179], for which the IC50 in assay [4] is no more than 100 nM; in assay [1], no more than 10 nM; in assay [3] it was no more than 100 nM.

As for `CC/C(Nc1cnn(C(F)F)c1)=C1/C(=O)Nc2ccc(C(=O)NCC3(C(F)(F)F)CC3)cc21` [Example 180], the IC50 was no more than 100 nM in assay [4], no more than 10 nM in assay [1] and 100 to 300 nM in assay [3].

As for `CC/C(Nc1cnn(CC(F)F)c1)=C1/C(=O)Nc2ccc(C(=O)NCC3(C(F)(F)F)CC3)cc21` [Example 181], the IC50 in assay [4] was no more than 100 nM; in assay [1], no more than 10 nM; in assay [3], no more than 100 nM.

For the origin of these results see patent US20240150368A1, “ULK INHIBITORS AND METHODS OF USE THEREOF” (Deciphera Pharmaceuticals, LLC, priority 2022, published 2024).
